Data published in ChEMBL document CHEMBL1201862, “PubChem BioAssay data set” (2004).
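How tested: cells in 96-well plates exposed to compound for 48 hours at five concentrations. GI50 is the concentration that inhibits growth by half.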 Calls of active or inactive are those of the source. Cut-off read from the data, not from the text of the source: active = GI50 up to about 1.1 µM and inactive = higher.

How the values were obtained:
Assay in all cases: DTP human tumour cell line panel, 48 h
[1] = system: CAKI-1
[2] = system: DU-145
[3] = system: EKVX
[4] = system: HCC 2998
[5] = system: HCT-116
[6] = system: HL-60
[7] = system: MCF7
[8] = system: MDA-MB-435
[9] = system: NCI-H226
[10] = system: NCI-H23
[11] = system: NCI-H460
[12] = system: PC-3
[13] = system: RXF 393
[14] = system: SF-539
[15] = system: SK-MEL-28
[16] = system: SN12C
[17] = system: SNB-19
[18] = system: T47D
[19] = system: UACC-62

In the case of `Oc1ccc(C(c2ccc(O)cc2)c2ccc(O)cc2)cc1`, the GI50 [1] is reported as 16.1 µM (inactive), the GI50 [2] is reported as 27.4 µM (inactive) and the GI50 [3] is reported as 15.3 µM (inactive). For the same molecule, the GI50 [4] was 18 µM (inactive), the GI50 [5] was 16.8 µM (inactive) and the GI50 [6] was 18.9 µM (inactive). For the same molecule, the GI50 [7] was 32.4 µM (inactive), the GI50 [8] was 19.7 µM (inactive) and the GI50 [9] was 10.4 µM (inactive). For the same molecule, the GI50 [10] was 19.2 µM (inactive), the GI50 [11] was 18.8 µM (inactive) and the GI50 [12] was 24 µM (inactive). For the same molecule, the GI50 [13] was 17.2 µM (inactive), the GI50 [14] was 20.8 µM (inactive) and the GI50 [15] was 19.3 µM (inactive). For the same molecule, the GI50 [16] was 20.3 µM (inactive), the GI50 [17] was 24.4 µM (inactive) and the GI50 [18] was 9.27 µM (inactive). The GI50 [19] was 14.5 µM (inactive).
For `OC1NC2Nc3ccccc3NC2NC1O` (configuration not stated), the GI50 [1] was > 100 µM (inactive), the GI50 [2] was > 100 µM (inactive) and the GI50 [3] was > 100 µM (inactive). The GI50 [4] was > 100 µM (inactive), the GI50 [5] was > 100 µM (inactive) and the GI50 [6] was > 100 µM (inactive). The GI50 [7] was > 100 µM (inactive), the GI50 [8] was > 100 µM (inactive) and the GI50 [9] was > 100 µM (inactive). For the same molecule, the GI50 [10] was > 100 µM (inactive), the GI50 [11] was > 100 µM (inactive) and the GI50 [12] was > 100 µM (inactive). The GI50 [13] was > 100 µM (inactive), the GI50 [14] was > 100 µM (inactive) and the GI50 [15] was > 100 µM (inactive). For the same molecule, the GI50 [16] was > 100 µM (inactive), the GI50 [17] was > 100 µM (inactive) and the GI50 [18] was > 100 µM (inactive). For the same molecule, the GI50 [19] was > 100 µM (inactive).
`CN1C(=O)[C@](C)(Cc2ccc(F)cc2)N(C(=O)OC(C)(C)C)[C@@H]1C(C)(C)C` was tested, and the GI50 [1] was 36.4 µM (inactive), the GI50 [2] was 42.3 µM (inactive) and the GI50 [3] was 47.1 µM (inactive). For the same molecule, the GI50 [4] was 24.3 µM (inactive), the GI50 [5] was 30 µM (inactive) and the GI50 [6] was 11.4 µM (inactive). For the same molecule, the GI50 [7] was 22.8 µM (inactive), the GI50 [8] was 39.3 µM (inactive) and the GI50 [9] was 23.6 µM (inactive). The GI50 [10] was 33.1 µM (inactive), the GI50 [11] was 31.5 µM (inactive) and the GI50 [12] was 30.5 µM (inactive). For the same molecule, the GI50 [13] was 21.3 µM (inactive), the GI50 [14] was 41.2 µM (inactive) and the GI50 [15] was 55.3 µM (inactive). The GI50 [16] was 17.9 µM (inactive), the GI50 [17] was > 100 µM (inactive) and the GI50 [18] was 26.7 µM (inactive). The GI50 [19] was 32 µM (inactive).
For `O=C(CCc1ccc(O)cc1)NCCc1ccc(O)cc1`, the GI50 [1] was > 100 µM (inactive), the GI50 [2] was > 100 µM (inactive) and the GI50 [3] was > 100 µM (inactive). The GI50 [4] was > 100 µM (inactive), the GI50 [5] was > 100 µM (inactive) and the GI50 [6] was > 100 µM (inactive). For the same molecule, the GI50 [7] was > 100 µM (inactive), the GI50 [8] was > 100 µM (inactive) and the GI50 [9] was > 100 µM (inactive). The GI50 [10] was > 100 µM (inactive), the GI50 [11] was > 100 µM (inactive) and the GI50 [12] was > 100 µM (inactive). The GI50 [13] was > 100 µM (inactive), the GI50 [14] was > 100 µM (inactive) and the GI50 [15] was > 100 µM (inactive). The GI50 [16] was > 100 µM (inactive), the GI50 [17] was > 100 µM (inactive) and the GI50 [18] was > 100 µM (inactive). For the same molecule, the GI50 [19] was > 100 µM (inactive).
With `CCCCCCCCCCCCP(=O)(O)OCC(N)C(=O)O` (configuration not stated) the GI50 [1] was 49.9 µM (inactive), the GI50 [2] was 40.4 µM (inactive) and the GI50 [3] was 93.3 µM (inactive). For the same molecule, the GI50 [4] was 30.5 µM (inactive), the GI50 [5] was 13.3 µM (inactive) and the GI50 [6] was 15.8 µM (inactive). For the same molecule, the GI50 [7] was 42.1 µM (inactive), the GI50 [8] was 18.3 µM (inactive) and the GI50 [9] was 40.7 µM (inactive). For the same molecule, the GI50 [10] was 48.9 µM (inactive), the GI50 [11] was 23.7 µM (inactive) and the GI50 [12] was 16 µM (inactive). The GI50 [13] was 48.1 µM (inactive), the GI50 [14] was 20.7 µM (inactive) and the GI50 [15] was 43.3 µM (inactive). The GI50 [16] was 18.9 µM (inactive), the GI50 [17] was 16.6 µM (inactive) and the GI50 [18] was > 100 µM (inactive).
In the case of `O=C1c2ccccc2CCC1C(O)(C(F)(F)F)C(F)(F)F` (configuration not stated), the GI50 [1] is reported as > 100 µM (inactive), the GI50 [2] is reported as > 100 µM (inactive) and the GI50 [3] is reported as > 100 µM (inactive). The GI50 [4] was 3.67 µM (inactive), the GI50 [5] was > 100 µM (inactive) and the GI50 [6] was > 10 µM (inactive). For the same molecule, the GI50 [7] was > 100 µM (inactive), the GI50 [8] was > 100 µM (inactive) and the GI50 [9] was > 100 µM (inactive). The GI50 [10] was > 100 µM (inactive), the GI50 [11] was > 100 µM (inactive) and the GI50 [12] was > 100 µM (inactive). For the same molecule, the GI50 [13] was 93.8 µM (inactive), the GI50 [14] was > 100 µM (inactive) and the GI50 [15] was > 100 µM (inactive). The GI50 [17] was > 100 µM (inactive), the GI50 [18] was 44.3 µM (inactive) and the GI50 [19] was > 100 µM (inactive).
For `CC(=O)O[C@H]1C(=O)[C@@]2(C)[C@H]([C@H](OC(=O)c3ccccc3)[C@]3(O)C[C@H](OC(=O)[C@H](O)[C@@H](NC(=O)c4ccc(N)cc4)c4ccccc4)C(C)=C1C3(C)C)[C@]1(OC(C)=O)CO[C@@H]1C[C@@H]2O`, the GI50 [1] was 4.66 µM (inactive), the GI50 [2] was 0.0191 µM (active) and the GI50 [3] was 0.959 µM (active). The GI50 [4] was < 0.005 µM (active), the GI50 [5] was < 0.005 µM (active) and the GI50 [6] was < 0.005 µM (active). The GI50 [7] was < 0.005 µM (active), the GI50 [8] was 0.0158 µM (active) and the GI50 [9] was < 0.005 µM (active). The GI50 [11] was < 0.005 µM (active), the GI50 [12] was < 0.005 µM (active) and the GI50 [13] was 0.0887 µM (active). The GI50 [14] was < 0.005 µM (active), the GI50 [15] was > 50 µM (inactive) and the GI50 [17] was 0.00675 µM (active). For the same molecule, the GI50 [18] was < 0.005 µM (active) and the GI50 [19] was 0.00815 µM (active).
In the case of `Cn1c(=O)c2c(nc3sc4nc5ccccc5nc4n32)n(C)c1=O`, the GI50 [1] is reported as > 100 µM (inactive), the GI50 [2] is reported as > 100 µM (inactive) and the GI50 [3] is reported as > 100 µM (inactive). For the same molecule, the GI50 [4] was > 100 µM (inactive), the GI50 [5] was > 100 µM (inactive) and the GI50 [6] was > 100 µM (inactive). For the same molecule, the GI50 [7] was > 100 µM (inactive), the GI50 [8] was > 100 µM (inactive) and the GI50 [9] was > 100 µM (inactive). The GI50 [10] was > 100 µM (inactive), the GI50 [11] was > 100 µM (inactive) and the GI50 [12] was > 100 µM (inactive). The GI50 [13] was > 100 µM (inactive), the GI50 [14] was > 100 µM (inactive) and the GI50 [16] was 85.9 µM (inactive). For the same molecule, the GI50 [17] was > 100 µM (inactive), the GI50 [18] was > 100 µM (inactive) and the GI50 [19] was > 100 µM (inactive).
